Results reported in ChEMBL document CHEMBL3784998, “Synthesis and biological evaluation ofd-gluconhydroximo-1,5-lactam and its oxime-substituted derivatives as pharmacological chaperones for the treatment of Gaucher disease” (Medchemcomm, 2016).
Where a chain is given by its changes, count along the chain named. pIC50, pKi: −log10 of the molar value. Calls of active or inactive are those of the source. The rule behind the calls is not given here.

Tests used:
[1] = Cytotoxicity against wild type human CCC-ESF1 cells at 100 uM after 24 hrs by MTT assay; type: cell-based; settings: ccc-esf1, 24 h
[2] = system: T1, Lysosomal acid glucosylceramidase (Homo sapiens), P04062 [N409S]; test: Pharmacological chaperone activity at beta-glucocerebrosidase N370S mutant in Gaucher disease patient-derived lymphoblasts with GCase N370S mutant assessed as increase in enzyme activity at 3.125 to 100 uM after 3 days by fluorimetric analysis relative to control
T1 sequence (whole entry): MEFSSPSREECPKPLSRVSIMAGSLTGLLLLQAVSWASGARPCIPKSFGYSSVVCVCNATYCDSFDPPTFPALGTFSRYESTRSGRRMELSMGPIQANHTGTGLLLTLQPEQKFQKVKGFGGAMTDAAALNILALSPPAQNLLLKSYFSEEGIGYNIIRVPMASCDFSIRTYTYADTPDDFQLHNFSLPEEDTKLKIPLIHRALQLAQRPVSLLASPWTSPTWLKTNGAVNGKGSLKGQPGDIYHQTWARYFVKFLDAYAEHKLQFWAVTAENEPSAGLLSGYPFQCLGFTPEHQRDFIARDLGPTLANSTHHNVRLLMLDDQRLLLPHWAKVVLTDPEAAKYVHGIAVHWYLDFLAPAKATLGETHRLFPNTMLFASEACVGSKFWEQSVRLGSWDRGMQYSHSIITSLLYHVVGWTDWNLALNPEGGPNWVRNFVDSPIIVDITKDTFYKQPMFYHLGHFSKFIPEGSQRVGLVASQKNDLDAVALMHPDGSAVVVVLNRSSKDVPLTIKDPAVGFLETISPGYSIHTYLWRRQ

[3] = molecular target: T2, Lysosomal acid glucosylceramidase (Homo sapiens, UniProt P04062); test: Inhibition of human recombinant imiglucerase using 4-MU-beta-D-Glu as substrate at pH 7.0 after 30 mins by fluorometric analysis
T2 sequence (P04062 whole entry): T1 sequence (whole entry) with S409N

[4] = Inhibition of almond beta glucosidase; set-up: species or system Prunus dulcis
[5] = molecular target: Alpha-galactosidase (Coffea arabica, UniProt Q42656); test: Inhibition of green coffee bean alpha-galactosidase
Alpha-galactosidase, sequence (Q42656 whole entry): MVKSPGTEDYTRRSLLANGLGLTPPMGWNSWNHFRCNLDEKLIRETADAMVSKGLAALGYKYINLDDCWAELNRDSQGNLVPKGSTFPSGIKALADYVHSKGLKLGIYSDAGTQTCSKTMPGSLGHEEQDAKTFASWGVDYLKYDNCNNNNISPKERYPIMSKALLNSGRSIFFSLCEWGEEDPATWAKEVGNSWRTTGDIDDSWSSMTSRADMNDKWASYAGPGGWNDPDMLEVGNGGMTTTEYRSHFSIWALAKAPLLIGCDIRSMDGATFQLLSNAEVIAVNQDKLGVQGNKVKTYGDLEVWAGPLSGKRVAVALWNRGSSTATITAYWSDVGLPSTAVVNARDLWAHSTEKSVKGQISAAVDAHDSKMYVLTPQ

[6] = molecular target: Beta-galactosidase (Escherichia coli K-12, UniProt P00722); test: Inhibition of Escherichia coli beta-galactosidase
Beta-galactosidase, sequence (P00722 whole entry): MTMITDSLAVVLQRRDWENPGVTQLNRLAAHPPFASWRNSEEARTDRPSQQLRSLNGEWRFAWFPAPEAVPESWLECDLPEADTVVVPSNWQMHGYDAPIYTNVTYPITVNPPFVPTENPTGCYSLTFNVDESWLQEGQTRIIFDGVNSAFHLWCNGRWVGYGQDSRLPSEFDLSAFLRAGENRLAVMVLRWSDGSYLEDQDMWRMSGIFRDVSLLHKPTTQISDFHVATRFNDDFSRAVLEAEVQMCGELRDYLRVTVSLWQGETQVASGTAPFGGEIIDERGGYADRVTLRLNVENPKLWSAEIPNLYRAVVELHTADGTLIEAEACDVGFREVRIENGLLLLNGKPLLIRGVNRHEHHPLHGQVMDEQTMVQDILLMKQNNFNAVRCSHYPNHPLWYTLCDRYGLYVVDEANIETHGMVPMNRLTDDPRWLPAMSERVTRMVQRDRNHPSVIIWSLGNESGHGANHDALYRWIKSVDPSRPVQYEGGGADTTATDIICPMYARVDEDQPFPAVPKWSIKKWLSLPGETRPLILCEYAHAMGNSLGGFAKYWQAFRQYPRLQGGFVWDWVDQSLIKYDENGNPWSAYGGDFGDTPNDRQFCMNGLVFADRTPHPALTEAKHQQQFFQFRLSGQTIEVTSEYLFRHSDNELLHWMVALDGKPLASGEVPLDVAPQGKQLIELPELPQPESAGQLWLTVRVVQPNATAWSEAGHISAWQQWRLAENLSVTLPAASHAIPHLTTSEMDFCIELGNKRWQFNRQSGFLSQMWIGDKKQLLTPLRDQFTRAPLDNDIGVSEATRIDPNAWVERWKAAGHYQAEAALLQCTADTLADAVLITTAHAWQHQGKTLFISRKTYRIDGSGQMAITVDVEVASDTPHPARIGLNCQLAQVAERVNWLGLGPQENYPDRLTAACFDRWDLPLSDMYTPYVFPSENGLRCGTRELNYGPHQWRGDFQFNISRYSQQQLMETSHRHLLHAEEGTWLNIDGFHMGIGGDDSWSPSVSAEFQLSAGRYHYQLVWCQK

[7] = molecular target: T2, Lysosomal acid glucosylceramidase; test: Competitive inhibition of human recombinant imiglucerase using 4-MU-beta-D-Glu as substrate at pH 5.2 after 30 mins by fluorometry based Lineweaver-Burk plot analysis
[8] = molecular target: T2, Lysosomal acid glucosylceramidase; test: Inhibition of human recombinant imiglucerase using 4-MU-beta-D-Glu as substrate at pH 5.2 after 30 mins by fluorometric analysis
[9] = system: T1, Lysosomal acid glucosylceramidase (Homo sapiens), P04062 [N409S]; test: Pharmacological chaperone activity at beta-glucocerebrosidase N370S mutant in Gaucher disease patient-derived lymphoblasts with GCase N370S mutant assessed as increase in enzyme activity at 10 uM after 3 days by fluorimetric analysis relative to control

With `O=C(Nc1cccc2ccccc12)O/N=C1\N[C@H](CO)[C@@H](O)[C@H](O)[C@H]1O` the Activity [1] was “Non-toxic”, the fold change (FC) [2] was 1.47 and the pIC50 [3] was 5.84. It also gave a pIC50 [4] of 4.97, a pIC50 [5] of under 4.00 and a pIC50 [6] of under 4.00. It also gave a pKi [7] of 5.10 and a pIC50 [8] of 5.14.
With `OC[C@H]1N/C(=N/O)[C@H](O)[C@@H](O)[C@@H]1O` the Activity [1] was “Non-toxic”, the fold change (FC) [2] was 1.28 and the Activity [9] was “inactive”. It also gave a pIC50 [3] of 4.18, a pIC50 [4] of 4.10 and a pIC50 [5] of under 4.00. The pIC50 [6] was under 4.00, the pKi [7] was 5.37 and the pIC50 [8] was 5.23.
For `CC(C)(C)NC(=O)O/N=C1\N[C@H](CO)[C@@H](O)[C@H](O)[C@H]1O`, the Activity [1] was “Non-toxic”, the fold change (FC) [2] was 1.3 and the pIC50 [3] was 4.67. It also gave a pIC50 [4] of 4.34, a pIC50 [5] of under 4.00 and a pIC50 [6] of under 4.00. It also gave a pKi [7] of 4.52 and a pIC50 [8] of 4.54.
In the case of `O=C(NC12CC3CC(CC(C3)C1)C2)O/N=C1\N[C@H](CO)[C@@H](O)[C@H](O)[C@H]1O`, the Activity [1] was “Non-toxic”, the fold change (FC) [2] was 1.35 and the pIC50 [3] was 5.08. It also gave a pIC50 [4] of 4.84, a pIC50 [5] of under 4.00 and a pIC50 [6] of under 4.00. The pKi [7] was 5.82 and the pIC50 [8] was 5.73.
For `OC[C@H]1CNC[C@@H](O)[C@@H]1O` [AFEGOSTAT], the Activity [1] was “Non-toxic”, the fold change (FC) [2] was 1.38 and the pIC50 [4] was under 4.00. It also gave a pIC50 [5] of under 4.00 and a pIC50 [6] of under 4.00.
For `O=C(Nc1ccccc1)O/N=C1\N[C@H](CO)[C@@H](O)[C@H](O)[C@H]1O`, the Activity [1] was “Non-toxic”, the fold change (FC) [2] was 1.49 and the pIC50 [3] was 4.71. It also gave a pIC50 [4] of 4.51, a pIC50 [5] of under 4.00 and a pIC50 [6] of under 4.00. It also gave a pKi [7] of 4.94 and a pIC50 [8] of 4.90.
In the case of `O=C(Nc1ccc(Oc2ccccc2)cc1)O/N=C1\N[C@H](CO)[C@@H](O)[C@H](O)[C@H]1O`, the Activity [1] was “Non-toxic”, the fold change (FC) [2] was 1.17 and the pIC50 [3] was 5.48. For the same compound, the pIC50 [4] was 4.84, the pIC50 [5] was under 4.00 and the pIC50 [6] was under 4.00. The pKi [7] was 7.30 and the pIC50 [8] was 6.49.
With `CCCCCCCCCN1C[C@H](O)[C@@H](O)[C@H](O)[C@H]1CO` the Activity [1] was “Non-toxic”, the pIC50 [4] was under 4.00 and the pIC50 [5] was under 4.00. It also gave a pIC50 [6] of under 4.00.
For `O=C(Nc1ccc2nsnc2c1)O/N=C1\N[C@H](CO)[C@@H](O)[C@H](O)[C@H]1O`, the Activity [1] was “Non-toxic”, the fold change (FC) [2] was 1.23 and the pIC50 [3] was 4.90. The pIC50 [4] was 5.21, the pIC50 [5] was under 4.00 and the pIC50 [6] was under 4.00. It also gave a pKi [7] of 5.20 and a pIC50 [8] of 5.24.
With `O=C(Nc1c(Cl)cccc1C(F)(F)F)O/N=C1\N[C@H](CO)[C@@H](O)[C@H](O)[C@H]1O` the Activity [1] was “Non-toxic”, the fold change (FC) [2] was 1.32 and the pIC50 [3] was 4.63. For the same compound, the pIC50 [4] was 5.24, the pIC50 [5] was under 4.00 and the pIC50 [6] was under 4.00. The pKi [7] was 4.91 and the pIC50 [8] was 4.74.
For `O=C(Nc1cccs1)O/N=C1\N[C@H](CO)[C@@H](O)[C@H](O)[C@H]1O`, the Activity [1] was “Non-toxic”, the fold change (FC) [2] was 1.36 and the pIC50 [3] was 4.88. The pIC50 [4] was 5.57, the pIC50 [5] was under 4.00 and the pIC50 [6] was under 4.00. It also gave a pKi [7] of 6.19 and a pIC50 [8] of 6.08.
In the case of `CCCCCCCCCCCCNC(=O)O/N=C1\N[C@H](CO)[C@@H](O)[C@H](O)[C@H]1O`, the Activity [1] was “Non-toxic”, the fold change (FC) [2] was 1.93 and the pIC50 [3] was 5.24. The pIC50 [4] was under 4.00, the pIC50 [5] was under 4.00 and the pIC50 [6] was under 4.00. The pKi [7] was 6.85 and the pIC50 [8] was 6.15.
In the case of `O=C(Nc1c(F)cccc1F)O/N=C1\N[C@H](CO)[C@@H](O)[C@H](O)[C@H]1O`, the Activity [1] was “Non-toxic”, the fold change (FC) [2] was 1.35 and the pIC50 [3] was 4.66. It also gave a pIC50 [4] of 5.12, a pIC50 [5] of under 4.00 and a pIC50 [6] of under 4.00. It also gave a pKi [7] of 4.76 and a pIC50 [8] of 4.77.
With `CSc1ccc(NC(=O)O/N=C2\N[C@H](CO)[C@@H](O)[C@H](O)[C@H]2O)cc1` the Activity [1] was “Non-toxic”, the fold change (FC) [2] was 1.19 and the pIC50 [3] was 4.76. For the same compound, the pIC50 [4] was 5.08, the pIC50 [5] was under 4.00 and the pIC50 [6] was under 4.00. For the same compound, the pKi [7] was 5.09 and the pIC50 [8] was 5.04.
